Experiments:
Assay type in all cases: in vivo
Digitaria sanguinalis = test: Pre-emergence herbicidal action, greenhouse, 320 g/ha; conditions: application rate 320 g/ha, Table B9
Excerpt: (§1) Seeds of monocotyledonous and dicotyledonous weed plants and crop plants were placed in plastic or organic planting pots and covered with soil. The compounds of the invention, formulated in the form of wettable powders (WP) or as emulsion concentrates (EC), were then applied to the surface of the covering soil as aqueous suspension or emulsion with addition of 0.5% additive at a water application rate equivalent to […]. After the treatment, the pots were placed in a greenhouse and kept under good growth conditions for the test plants. After about 3 weeks, the effect of the preparations is scored visually in comparison with untreated controls as percentages. For example, 100% activity=the plants have died, 0% activity=like control plants. Tables B1 to B14 below show the effects of selected compounds of the general formula (I) according to Tables I.1 to I.150 on various harmful plants and at an application rate corresponding to 320 g/ha, which were obtained by the experimental procedure mentioned above.

Amaranthus retroflexus [1] = test: as above; conditions: application rate 320 g/ha, scored visually after about 3 weeks vs untreated controls
Excerpt: as §1

Polygonum convolvulus = test: as above; conditions: application rate 320 g/ha, scored visually after about 3 weeks vs untreated controls
Excerpt: as §1

Viola tricolor = test: as above; conditions: application rate 320 g/ha, Table B8
Excerpt: as §1

Setaria viridis = test: as above; conditions: application rate 320 g/ha, Table B11
Excerpt: as §1

Abutilon theophrasti [2] = test: as above; conditions: application rate 320 g/ha, scored visually after about 3 weeks vs untreated controls
Excerpt: as §1

Hordeum murinum = test: as above; conditions: application rate 320 g/ha, Table B14
Excerpt: as §1

Matricaria inodora [3] = test: as above; conditions: application rate 320 g/ha, scored visually after about 3 weeks vs untreated controls
Excerpt: as §1

Stellaria media [4] = test: as above; conditions: application rate 320 g/ha, scored visually after about 3 weeks vs untreated controls
Excerpt: as §1

Alopecurus myosuroides = test: as above; conditions: application rate 320 g/ha, scored visually after about 3 weeks vs untreated controls
Excerpt: as §1

Pharbitis purpurea = test: as above; conditions: application rate 320 g/ha, Table B12
Excerpt: as §1

Avena fatua = test: as above; conditions: application rate 320 g/ha, scored visually after about 3 weeks vs untreated controls
Excerpt: as §1

Amaranthus retroflexus [5] = test: Herbicidal post-emergence action (Part 2), 1280 g/ha; conditions: application rate 1280 g/ha, rated visually after about 3 weeks, Table C5
Experimental: (§2) Seeds of mono- and dicotyledonous weed plants were placed in plastic pots in sandy loam soil (doubly sown with in each case one species of mono- or dicotyledonous weed plants per pot), covered with soil and cultivated in a greenhouse under controlled growth conditions. 2 to 3 weeks after sowing, the test plants were treated at the one-leaf stage. The compounds of the invention, formulated in the form of wettable powders (WP) or as emulsion concentrates (EC), were applied onto the green parts of the plants as aqueous suspension or emulsion with addition of 0.5% additive at a water application rate of 600 liters per hectare (converted). After the test plants had been kept in the greenhouse under optimum growth conditions for about 3 weeks, the activity of the preparations was rated visually in comparison to untreated controls. For example, 100% activity=the plants have died, 0% activity=like control plants. Tables C1 to C7 below show the effects of selected compounds of the general formula (I) according to Tables 1.1 to 1.150 on various harmful plants and at an application rate corresponding to 1280 g/ha, which were obtained by the experimental procedure mentioned above.

Stellaria media [6] = test: as above; conditions: application rate 1280 g/ha, rated visually after about 3 weeks, Table C7
Experimental: as §2

Amaranthus retroflexus [7] = test: Herbicidal pre-emergence action (Part 2), 1280 g/ha; conditions: application rate 1280 g/ha, scored visually after about 3 weeks, Table D6
Excerpt: (§3) Seeds of mono- and dicotyledonous weed plants were placed in plastic pots in sandy loam soil (doubly sown with in each case one species of mono- or dicotyledonous weed plants per pot) and covered with soil. The compounds of the invention, formulated in the form of wettable powders (WP) or as emulsion concentrates (EC), were then applied onto the surface of the covering soil as aqueous suspension or emulsion with addition of 0.5% additive at a water application rate of 600 liters per hectare (converted). After the treatment, the pots were placed in a greenhouse and kept under good growth conditions for the test plants. After about 3 weeks, the effect of the preparations was scored visually in comparison with untreated controls as percentages. For example, 100% activity=the plants have died, 0% activity=like control plants. Tables D1 to D8 below show the effects of selected compounds of the general formula (I) according to Tables 1.1 to 1.150 on various harmful plants and at an application rate corresponding to 1280 g/ha, which were obtained by the experimental procedure mentioned above.

Matricaria inodora [8] = test: as above; conditions: application rate 1280 g/ha, scored visually after about 3 weeks, Table D7
Excerpt: as §3

Stellaria media [9] = test: as above; conditions: application rate 1280 g/ha, scored visually after about 3 weeks, Table D8
Excerpt: as §3

Matricaria inodora [10] = test: Herbicidal post-emergence action (Part 2), 1280 g/ha; conditions: application rate 1280 g/ha, rated visually after about 3 weeks, Table C6
Experimental: as §2

Abutilon theophrasti [11] = test: Herbicidal pre-emergence action (Part 2), 1280 g/ha; conditions: application rate 1280 g/ha, scored visually after about 3 weeks, Table D5
Excerpt: as §3

Poa annua = test: as above; conditions: application rate 1280 g/ha, scored visually after about 3 weeks, Table D3
Excerpt: as §3

Echinochloa crus-galli = test: as above; conditions: application rate 1280 g/ha, scored visually after about 3 weeks, Table D1
Excerpt: as §3

SMILES	Amaranthus retroflexus (efficacy in %) (Amaranthus retroflexus [1])	Polygonum convolvulus (efficacy in %) (Polygonum convolvulus)	Viola tricolor (efficacy in %) (Viola tricolor)	Stellaria media (efficacy in %) (Stellaria media [4])	Amaranthus retroflexus (Amaranthus retroflexus [5])	Stellaria media (Stellaria media [6])	Amaranthus retroflexus (Amaranthus retroflexus [7])	Matricaria inodora (Matricaria inodora [8])	Stellaria media (Stellaria media [9])	Poa Annua (Poa annua)	also measured
Cc1c(N2C(=O)N(C)CCC2O)noc1C(C)(C)C (stereo not shown) [I.1-177]	90%	100%	90%	–	–	–	–	–	–	–	Digitaria sanguinalis (efficacy in %) (Digitaria sanguinalis): 100%; Setaria viridis (efficacy in %) (Setaria viridis): 90%
C=CCC(C)(C)c1cc(N2C(=O)N(C)CCC2O)no1 (stereo not shown) [I.1-199]	100%	90%	100%	100%	–	–	–	–	–	–	Abutilon theophrasti (efficacy in %) (Abutilon theophrasti [2]): 100%; Hordeum murinum (efficacy in %) (Hordeum murinum): 80%; Matricaria inodora (efficacy in %) (Matricaria inodora [3]): 100%; Alopecurus myosuroides (efficacy in %) (Alopecurus myosuroides): 90%
COCC(C)(C)c1cc(N2C(=O)N(C)CCC2O)no1 (stereo not shown) [I.1-200]	–	–	80%	80%	–	–	–	–	–	–	Pharbitis purpurea (efficacy in %) (Pharbitis purpurea): 100%; Matricaria inodora (efficacy in %) (Matricaria inodora [3]): 90%
CN1CCC(O)N(c2noc(C(C)(C)C)c2Br)C1=O (stereo not shown) [I.1-207]	90%	100%	100%	100%	–	–	–	–	–	–	Digitaria sanguinalis (efficacy in %) (Digitaria sanguinalis): 100%; Pharbitis purpurea (efficacy in %) (Pharbitis purpurea): 100%; Avena fatua (efficacy in %) (Avena fatua): 90%; Setaria viridis (efficacy in %) (Setaria viridis): 100%
CN1CCC(O)N(c2cc(C(C)(C)F)ncn2)C1=O (stereo not shown) [I.1-503]	–	–	100%	–	–	–	–	–	–	–	Matricaria inodora (efficacy in %) (Matricaria inodora [3]): 100%; Avena fatua (efficacy in %) (Avena fatua): 100%
CN1CCC(O)N(C2=NOC(C)(C)C2)C1=O (stereo not shown) [I.1-709]	–	100%	–	100%	–	–	–	–	–	–	Digitaria sanguinalis (efficacy in %) (Digitaria sanguinalis): 100%; Alopecurus myosuroides (efficacy in %) (Alopecurus myosuroides): 100%
CC(=O)OC1CCN(C)C(=O)N1c1cc(C(F)(F)F)c(Cl)cn1 (stereo not shown) [I.2-451]	–	–	–	–	100%	100%	100%	90%	100%	–	–
CCC(=O)OC1CCN(C)C(=O)N1c1cc(C(C)(C)C)no1 (stereo not shown) [I.3-290, 3-(3-tert-Butyl-1,2-oxazol-5-yl)-1-methyl-2-oxohexahydropyrimidin-4-yl Propionate]	–	–	–	–	100%	100%	100%	100%	100%	100%	Matricaria inodora (Matricaria inodora [10]): 90%; Abutilon theophrasti (Abutilon theophrasti [11]): 100%
CCC(=O)OC1CCN(C)C(=O)N1c1cc(C(F)(F)F)c(Cl)cn1 (stereo not shown) [I.3-451]	–	–	–	–	100%	100%	100%	90%	100%	90%	Echinochloa crus-galli (Echinochloa crus-galli): 100%
CCC(=O)OC1CCN(C)C(=O)N1c1cc(C(F)(F)F)c(Br)cn1 (stereo not shown) [I.3-464]	90%	90%	100%	100%	–	–	–	–	–	–	Setaria viridis (efficacy in %) (Setaria viridis): 90%
CCCC(=O)OC1CCN(C)C(=O)N1c1cc(C(C)(C)C)no1 (stereo not shown) [I.4-290]	–	–	–	–	–	–	100%	90%	100%	90%	Abutilon theophrasti (Abutilon theophrasti [11]): 100%
CCCC(=O)OC1CCN(C)C(=O)N1c1cc(C(F)(F)F)ccn1 (stereo not shown) [I.4-449]	–	–	–	–	100%	90%	100%	100%	100%	90%	–
CCCC(=O)OC1CCN(C)C(=O)N1c1cc(C(F)(F)F)c(Cl)cn1 (stereo not shown) [I.4-451]	–	–	–	–	100%	100%	100%	–	100%	–	–
CC(C)CC(=O)OC1CCN(C)C(=O)N1c1cc(C(F)(F)F)ccn1 (stereo not shown) [I.7-449]	–	–	–	–	100%	–	100%	100%	100%	90%	Matricaria inodora (Matricaria inodora [10]): 90%
CC1CC(O)N(c2cc(C(F)(F)F)ccn2)C(=O)N1C (stereo not shown) [I.41-449]	100%	–	100%	100%	–	–	–	–	–	–	Matricaria inodora (efficacy in %) (Matricaria inodora [3]): 100%; Alopecurus myosuroides (efficacy in %) (Alopecurus myosuroides): 90%
CCCC(=O)OC1CC(C)N(C)C(=O)N1c1cc(C(F)(F)F)ccn1 (stereo not shown) [I.44-449]	–	–	–	–	–	90%	100%	90%	100%	–	Echinochloa crus-galli (Echinochloa crus-galli): 100%
CCC(=O)OC1N(c2cc(C(C)(C)C)on2)C(=O)N(C)CC1(C)C (stereo not shown) [I.63-162]	–	–	–	–	100%	100%	100%	90%	100%	100%	Matricaria inodora (Matricaria inodora [10]): 100%; Abutilon theophrasti (Abutilon theophrasti [11]): 100%
CON1CCC(O)N(c2cc(C(C)(C)C)on2)C1=O (stereo not shown) [I.91-162]	90%	100%	–	–	–	–	–	–	–	–	Digitaria sanguinalis (efficacy in %) (Digitaria sanguinalis): 100%; Alopecurus myosuroides (efficacy in %) (Alopecurus myosuroides): 80%

— patent publication US20200390100A1, “SUBSTITUTED N-HETEROCYCLYL- AND N-HETEROARYL-TETRAHYDROPYRIMIDINONES AND THE SALTS THEREOF, AND THE USE OF SAME AS HERBICIDAL ACTIVE SUBSTANCES” (Bayer Aktiengesellschaft, priority 2017, published 2020)
